Reference: ChEMBL document CHEMBL3526130, “An evaluation of using rat-derived single-dose neuropharmacokinetic parameters to project accurately large animal unbound brain drug concentrations” (Drug Metab Dispos, 2012)

Columns and labels:
[1] = AUC(0 to infinity) in Sprague-Dawley rat cerebrospinal fluid at 1 mg/kg, sc by LC-MS/MS analysis; assay type: ADME, organism-based; design: time infinity, dose 1 mg/kg, route subcutaneous
[2] = AUC(0 to 2 hrs) in Beagle dog brain at 0.1 mg/kg, sc by LC-MS/MS analysis; assay type: ADME, organism-based, Canis lupus familiaris; design: time < 2 hr, dose 0.1 mg/kg, route subcutaneous
[3] = Ratio of drug level in brain to plasma in Beagle dog at 0.1 mg/kg, sc by LC-MS/MS analysis; assay type: ADME, organism-based, Canis lupus familiaris; design: dose 0.1 mg/kg, route subcutaneous; settings: brain and plasma, read-out: BPR
[4] = Ratio of unbound drug level in brain to plasma in Beagle dog at 0.1 mg/kg, sc by LC-MS/MS analysis; assay type: ADME, organism-based, Canis lupus familiaris; design: dose 0.1 mg/kg, route subcutaneous; settings: brain and plasma
[5] = AUC(0 to 2 hrs) in Beagle dog plasma at 0.1 mg/kg, sc by LC-MS/MS analysis; assay type: ADME, organism-based, Canis lupus familiaris; design: time < 2 hr, dose 0.1 mg/kg, route subcutaneous
[6] = Ratio of unbound brain concentration to drug level in cerebrospinal fluid in cynomolgus monkey at 0.1 mg/kg, sc by LC-MS/MS analysis; assay type: ADME, organism-based, Macaca fascicularis; design: dose 0.1 mg/kg, route subcutaneous; settings: in vivo
[7] = Ratio of unbound drug level in brain to plasma in cynomolgus monkey at 0.1 mg/kg, sc by LC-MS/MS analysis; assay type: ADME, organism-based, Macaca fascicularis; design: dose 0.1 mg/kg, route subcutaneous; settings: brain and plasma
[8] = AUC(0 to infinity) in Sprague-Dawley rat brain at 1 mg/kg, sc by LC-MS/MS analysis; assay type: ADME, organism-based; design: time infinity, dose 1 mg/kg, route subcutaneous
[9] = Ratio of unbound brain concentration to drug level in cerebrospinal fluid in Beagle dog at 0.1 mg/kg, sc by LC-MS/MS analysis; assay type: ADME, organism-based, Canis lupus familiaris; design: dose 0.1 mg/kg, route subcutaneous; settings: in vivo
[10] = Ratio of drug level in brain to plasma in Sprague-Dawley rat at 1 mg/kg, sc by LC-MS/MS analysis; assay type: ADME, organism-based; design: dose 1 mg/kg, route subcutaneous; settings: read-out: BPR
[11] = AUC(0 to 2 hrs) in Sprague-Dawley rat brain at 1 mg/kg, sc by LC-MS/MS analysis; assay type: ADME, organism-based; design: time < 2 hr, dose 1 mg/kg, route subcutaneous
Nucleic Acid [12] = assay: Ratio of drug level in cerebrospinal fluid to unbound plasma concentration in cynomolgus monkey at 0.1 mg/kg, sc by LC-MS/MS analysis; assay type: ADME, organism-based, Macaca fascicularis; design: dose 0.1 mg/kg, route subcutaneous; settings: in vivo
[13] = AUC(0 to 2 hrs) in Sprague-Dawley rat plasma at 1 mg/kg, sc by LC-MS/MS analysis; assay type: ADME, organism-based; design: time < 2 hr, dose 1 mg/kg, route subcutaneous
[14] = Ratio of drug level in brain to plasma in cynomolgus monkey at 0.1 mg/kg, sc by LC-MS/MS analysis; assay type: ADME, organism-based, Macaca fascicularis; design: dose 0.1 mg/kg, route subcutaneous; settings: brain and plasma, read-out: BPR
[15] = Unbound fraction in Beagle dog plasma at 0.1 mg/kg, sc by LC-MS/MS analysis; assay type: ADME, organism-based, Canis lupus familiaris; design: dose 0.1 mg/kg, route subcutaneous
[16] = AUC(0 to 1 hr) in cynomolgus monkey plasma at 0.1 mg/kg, sc by LC-MS/MS analysis; assay type: ADME, organism-based, Macaca fascicularis; design: time < 1 hr, dose 0.1 mg/kg, route subcutaneous
[17] = AUC(0 to 1 hr) in cynomolgus monkey brain at 0.1 mg/kg, sc by LC-MS/MS analysis; assay type: ADME, organism-based, Macaca fascicularis; design: time < 1 hr, dose 0.1 mg/kg, route subcutaneous
[18] = Unbound fraction in cynomolgus monkey brain at 0.1 mg/kg, sc by LC-MS/MS analysis; assay type: ADME, organism-based, Macaca fascicularis; design: dose 0.1 mg/kg, route subcutaneous
[19] = Unbound fraction in Beagle dog brain at 0.1 mg/kg, sc by LC-MS/MS analysis
[20] = Ratio of unbound drug level in brain to plasma in Sprague-Dawley rat at 1 mg/kg, sc by LC-MS/MS analysis; assay type: ADME, organism-based; design: dose 1 mg/kg, route subcutaneous
[21] = AUC(0 to infinity) in Sprague-Dawley rat plasma at 1 mg/kg, sc by LC-MS/MS analysis; assay type: ADME, organism-based; design: time infinity, dose 1 mg/kg, route subcutaneous
[22] = Unbound fraction in cynomolgus monkey plasma at 0.1 mg/kg, sc by LC-MS/MS analysis; assay type: ADME, organism-based, Macaca fascicularis; design: dose 0.1 mg/kg, route subcutaneous
Nucleic Acid [23] = assay: Ratio of drug level in cerebrospinal fluid to unbound plasma concentration in Sprague-Dawley rat at 1 mg/kg, sc by LC-MS/MS analysis; assay type: ADME, organism-based; design: dose 1 mg/kg, route subcutaneous; settings: in vivo
[24] = AUC(0 to 2 hrs) in Sprague-Dawley rat cerebrospinal fluid at 1 mg/kg, sc by LC-MS/MS analysis; assay type: ADME, organism-based; design: time < 2 hr, dose 1 mg/kg, route subcutaneous
[25] = Ratio of unbound brain concentration to drug level in cerebrospinal fluid in Sprague-Dawley rat at 1 mg/kg, sc by LC-MS/MS analysis; assay type: ADME, organism-based; design: dose 1 mg/kg, route subcutaneous; settings: in vivo
[26] = AUC(0 to 1 hr) in cynomolgus monkey cerebrospinal fluid at 0.1 mg/kg, sc by LC-MS/MS analysis; assay type: ADME, organism-based, Macaca fascicularis; design: time < 1 hr, dose 0.1 mg/kg, route subcutaneous
[27] = AUC(0 to 2 hrs) in Beagle dog cerebrospinal fluid at 0.1 mg/kg, sc by LC-MS/MS analysis; assay type: ADME, organism-based, Canis lupus familiaris; design: time < 2 hr, dose 0.1 mg/kg, route subcutaneous
[28] = Ratio of unbound brain concentration to drug level in cerebrospinal fluid in Beagle dog at 0.5 mg/kg, po by LC-MS/MS analysis; assay type: ADME, organism-based, Canis lupus familiaris; design: dose 0.5 mg/kg, route oral; settings: in vivo
[29] = Unbound fraction in Beagle dog brain at 0.5 mg/kg, po by LC-MS/MS analysis; assay type: ADME, organism-based, Canis lupus familiaris; design: dose 0.5 mg/kg, route oral
[30] = Ratio of unbound drug level in brain to plasma in Beagle dog at 0.5 mg/kg, po by LC-MS/MS analysis; assay type: ADME, organism-based, Canis lupus familiaris; design: dose 0.5 mg/kg, route oral; settings: brain and plasma
[31] = Unbound fraction in Beagle dog plasma at 0.5 mg/kg, po by LC-MS/MS analysis; assay type: ADME, organism-based, Canis lupus familiaris; design: dose 0.5 mg/kg, route oral
Nucleic Acid [32] = assay: Ratio of drug level in cerebrospinal fluid to unbound plasma concentration in Beagle dog at 0.5 mg/kg, po by LC-MS/MS analysis; assay type: ADME, organism-based, Canis lupus familiaris; design: dose 0.5 mg/kg, route oral; settings: in vivo
[33] = AUC(0 to infinity) in Sprague-Dawley rat brain at 0.2 mg/kg, sc by LC-MS/MS analysis; assay type: ADME, organism-based; design: time infinity, dose 0.2 mg/kg, route subcutaneous
[34] = AUC(0 to 7 hrs) in Sprague-Dawley rat plasma at 0.2 mg/kg, sc by LC-MS/MS analysis; assay type: ADME, organism-based; design: time < 7 hr, dose 0.2 mg/kg, route subcutaneous
[35] = AUC(0 to infinity) in Sprague-Dawley rat plasma at 0.2 mg/kg, sc by LC-MS/MS analysis; assay type: ADME, organism-based; design: dose 0.2 mg/kg, route subcutaneous, time infinity
[36] = AUC(0 to infinity) in Sprague-Dawley rat cerebrospinal fluid at 0.2 mg/kg, sc by LC-MS/MS analysis; assay type: ADME, organism-based; design: time infinity, dose 0.2 mg/kg, route subcutaneous
[37] = AUC(0 to 7 hrs) in Sprague-Dawley rat brain at 0.2 mg/kg, sc by LC-MS/MS analysis; assay type: ADME, organism-based; design: time < 7 hr, dose 0.2 mg/kg, route subcutaneous
[38] = AUC(0 to 7 hrs) in Sprague-Dawley rat cerebrospinal fluid at 0.2 mg/kg, sc by LC-MS/MS analysis; assay type: ADME, organism-based; design: time < 7 hr, dose 0.2 mg/kg, route subcutaneous

Row | Compound | AUC(0-inf) [1] [ng·h/mL] | Ratio [6] | Kp uu [7] | AUC(0-inf) [8] [ng·h/mL] | Kp [10] | AUC(0-t) at 2 h [11] [ng·h/mL] | Ratio (Nucleic Acid [12]) | AUC(0-t) at 2 h [13] [ng·h/mL] | Kp [14] | fraction unbound [18] | Kp uu [20] | AUC(0-inf) [21] [ng·h/mL] | fraction unbound [22] | Ratio (Nucleic Acid [23]) | AUC(0-t) at 2 h [24] [ng·h/mL] | Ratio [25] | also measured
1 | Cc1nc2n(c(=O)c1CCN1CCC(c3noc4cc(F)ccc34)CC1)CCCC2 [RISPERIDONE] | 11.9 | 1.82 | 0.89 | 130 | 0.26 | 108 | 0.49 | 409 | 0.82 | 0.0919 | 0.23 | 441 | 0.084 | 0.35 | 11.3 | 0.67 | AUC(0-t) at 2 h [2]: 72 ng·h/mL; Kp [3]: 1.01; Kp uu [4]: 0.99; AUC(0-t) at 2 h [5]: 71.2 ng·h/mL; Ratio [9]: 1.67; fraction unbound [15]: 0.083; AUC(0-t) at 1 h [16]: 27.6 ng·h/mL; AUC(0-t) at 1 h [17]: 22.6 ng·h/mL; fraction unbound [19]: 0.0809; AUC(0-t) at 1 h [26]: 1.14 ng·h/mL; AUC(0-t) at 2 h [27]: 3.48 ng·h/mL
2 | CC(C)S(=O)(=O)N[C@H]1CCOC[C@@H]1c1ccc(-c2ccc(C#N)s2)cc1 | 5.4 | 0.94 | 0.73 | 150 | 1.07 | 131 | 0.78 | 122 | 2.82 | 0.0228 | 0.44 | 131 | 0.0876 | 0.6 | 3.46 | 0.74 | Ratio [28]: 1.19; fraction unbound [29]: 0.026; Kp uu [30]: 0.51; fraction unbound [31]: 0.0685; Ratio (Nucleic Acid [32]): 0.43
3 | CCCC(C)C1(CC)C(=O)NC(=S)NC1=O (centres undefined) [THIOPENTAL] | – | – | – | – | – | – | – | – | – | – | – | – | – | – | – | – | AUC(0-inf) [33]: 215 ng·h/mL; AUC(0-t) at 7 h [34]: 216 ng·h/mL; AUC(0-inf) [35]: 244 ng·h/mL; AUC(0-inf) [36]: 16.6 ng·h/mL; AUC(0-t) at 7 h [37]: 209 ng·h/mL; AUC(0-t) at 7 h [38]: 16.4 ng·h/mL
